Measurements from patent US20220363689A1, “INHIBITOR OF BTK AND MUTANTS THEREOF” (Newave Pharmaceutical Inc., priority 2019, published 2022).

Legend:
Type in all cases: biochemical
C481S Btk = C481S Btk (Homo sapiens, UniProt Q06187, C481S); test: Caliper-based kinase assay, C481S BTK; conditions: 0.5 nM enzyme, ATP 16 μM, room temperature 3 h; read-out: C481S BTK IC50 (nM) (reversible inhibition)
Protocol: (§1) A Caliper-based kinase assay (Caliper Life Sciences, Hopkinton, Mass.) was used to measure inhibition of WT and […] Btk kinase activity of a compound of the present disclosure. […] The reaction was then terminated with EDTA, final concentration 20 mM and the phosphorylated reaction product was quantified on a Caliper Desktop Profiler (Caliper LabChip 3000).

WT BTK [1] = target: T1, WT BTK (Homo sapiens, UniProt Q06187); test: Caliper-based kinase assay, WT BTK; conditions: 0.5 nM enzyme, ATP 16 μM, room temperature 3 h; read-out: WT BTK IC50 (nM) (irreversible inhibition)
Protocol: as §1

WT BTK [2] = target: T1, WT BTK; test: In vitro dialysis assay (irreversibility assay), WT BTK; conditions: reversible or irreversible/covalent inhibition after 24 h dialysis
Protocol: The compound-enzyme complex was dialyzed against the same buffer supplemented with 40 mM ATP for 24 hr. Cumulative dialysis factor>160,000×. After dialysis, the BTK activity was measured in the presence […] and 1 mM substrate peptide and compared to that in non-dialyzed samples. Assay buffer: 100 mM HEPES, pH7.5; […]; 5 mM MgCl2; 1 mM DTT. In this study, Ibrutiib (a FDA approved irreversible BTK inhibitor) was used as a positive control and Saurosporine (a reversible BTK inhibitor) was used as a negative control.

Chain of C481S Btk (Q06187 whole entry C481S): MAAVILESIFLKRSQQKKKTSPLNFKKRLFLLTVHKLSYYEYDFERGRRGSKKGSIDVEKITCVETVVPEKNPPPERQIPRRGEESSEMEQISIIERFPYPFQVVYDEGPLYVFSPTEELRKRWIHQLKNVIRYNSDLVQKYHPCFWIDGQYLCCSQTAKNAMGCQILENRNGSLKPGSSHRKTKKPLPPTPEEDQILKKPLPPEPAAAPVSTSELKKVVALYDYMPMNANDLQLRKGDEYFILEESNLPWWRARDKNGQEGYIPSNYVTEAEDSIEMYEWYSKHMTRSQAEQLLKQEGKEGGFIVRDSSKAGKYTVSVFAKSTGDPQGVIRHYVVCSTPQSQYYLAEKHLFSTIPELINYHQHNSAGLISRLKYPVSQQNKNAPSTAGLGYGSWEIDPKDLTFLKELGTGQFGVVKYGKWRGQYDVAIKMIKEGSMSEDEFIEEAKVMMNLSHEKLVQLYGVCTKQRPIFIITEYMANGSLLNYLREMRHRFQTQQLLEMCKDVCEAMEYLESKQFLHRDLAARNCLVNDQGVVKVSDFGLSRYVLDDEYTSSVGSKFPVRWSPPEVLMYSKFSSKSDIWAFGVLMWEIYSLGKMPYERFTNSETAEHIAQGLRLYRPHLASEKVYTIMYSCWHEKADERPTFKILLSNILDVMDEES
T1 sequence (Q06187 whole entry): as the sequence (Q06187 whole entry C481S) above, with S481C counted along it

SMILES | IC50 (C481S Btk) [nM] | IC50 (WT BTK [1]) [nM] | Conclusion (WT BTK) (WT BTK [2])
C=CC(=O)Nc1cc(Nc2nc(-c3ccnc(N4CCn5c(cc6c5CC(C)(C)C6)C4=O)c3CO)cn(C)c2=O)ccc1N1CCN(C2COC2)C[C@@H]1C [Example 3, (S)—N-(5-((6-(2-(7,7-dimethyl-1-oxo-1,3,4,6,7,8-hexahydro-2H-cyclopenta[4,5]pyrrolo[1,2-a]pyrazin-2-yl)-3-(hydroxymethyl)pyridin-4-yl)-4-methyl-3-oxo-3,4-dihydropyrazin-2-yl)amino)-2-(2-methyl-4-(oxetan-3-yl)piperazin-1-yl)phenyl)acrylamide] | 0.72 | 0.14 | Irreversible/covalent inhibition
C=CC(=O)Nc1cc(Nc2nc(-c3ccnc(N4CCn5c(cc6c5CC(C)(C)C6)C4=O)c3C)cn(C)c2=O)ccc1N1CCN(C2COC2)C[C@@H]1C [Example 11, (S)—N-(5-((6-(2-(7,7-dimethyl-1-oxo-1,3,4,6,7,8-hexahydro-2H-cyclopenta[4,5]pyrrolo[1,2-a]pyrazin-2-yl)-3-methylpyridin-4-yl)-4-methyl-3-oxo-3,4-dihydropyrazin-2-yl)amino)-2-(2-methyl-4-(oxetan-3-yl)piperazin-1-yl)phenyl)acrylamide] | 15.9 | 0.25 | Irreversible/covalent inhibition
C=CC(=O)Nc1cc(Nc2nc(-c3ccnc(N4CCn5c(cc6c5CC(C)(C)C6)C4=O)c3CO)cn(C)c2=O)ccc1N1CCC(N2CCOCC2)CC1C (centres unmarked) [Example 12, N-(5-((6-(2-(7,7-dimethyl-1-oxo-1,3,4,6,7,8-hexahydro-2H-cyclopenta[4,5]pyrrolo[1,2-a]pyrazin-2-yl)-3-(hydroxymethyl)pyridin-4-yl)-4-methyl-3-oxo-3,4-dihydropyrazin-2-yl)amino)-2-(2-methyl-4-morpholinopiperidin-1-yl)phenyl)acrylamide] | 0.25 | 0.046 | Irreversible/covalent inhibition
C=CC(=O)Nc1cc(Nc2nc(-c3ccnc(N4CCn5c(cc6c5CC(C)(C)C6)C4=O)c3C)cn(C)c2=O)ccc1N1CCC(N2CCOCC2)CC1C [Example 17, N-(5-[[6-(2-[4,4-dimethyl-9-oxo-1,10-diazatricyclo[6.4.0.0^[2,6]]dodeca-2(6),7-dien-10-yl]-3-methylpyridin-4-yl)-4-methyl-3-oxopyrazin-2-yl]amino]-2-[(2S)-2-methyl-4-(morpholin-4-yl)piperidin-1-yl]phenyl)prop-2-enamide] | 7.1 | 0.1 | Irreversible/covalent inhibition
C=CC(=O)Nc1cc(Nc2nc(-c3ccnc(N4CCn5c(cc6c5CC(C)(C)C6)C4=O)c3C)cn(C)c2=O)ccc1N1CCC(N2CCOCC2)CC1.Cl [Example 18, N-(5-[[6-(2-[4,4-dimethyl-9-oxo-1,10-diazatricyclo[6.4.0.0^[2,6]]dodeca-2(6),7-dien-10-yl]-3-methylpyridin-4-yl)-4-methyl-3-oxopyrazin-2-yl]amino]-2-[4-(morpholin-4-yl)piperidin-1-yl]phenyl)prop-2-enamide hydrochloride] | 11.4 | 0.18 | Irreversible/covalent inhibition
C=CC(=O)Nc1cc(Nc2nc(-c3ccnc(N4CCn5c(cc6c5CC(C)(C)C6)C4=O)c3CO)cn(C)c2=O)ccc1N1CCC(N2CCC(F)(F)CC2)CC1 [Example 20, N-(2-[4,4-difluoro-[1,4′-bipiperidin]-1′-yl]-5-[[6-(2-[4,4-dimethyl-9-oxo-1,10-diazatricyclo[6.4.0.0^[2,6]]dodeca-2(6),7-dien-10-yl]-3-(hydroxymethyl)pyridin-4-yl)-4-methyl-3-oxopyrazin-2-yl]amino]phenyl)prop-2-enamide] | 0.4 | 0.053 | Irreversible/covalent inhibition
C=CC(=O)Nc1cc(Nc2nc(-c3ccnc(N4CCn5c(cc6c5CC(C)(C)C6)C4=O)c3CO)cn(C)c2=O)ccc1N1CCC(N2CCN(C)CC2)CC1 [Example 21, N-(5-[[6-(2-[4,4-dimethyl-9-oxo-1,10-diazatricyclo[6.4.0.0^[2,6]]dodeca-2(6),7-dien-10-yl]-3-(hydroxymethyl)pyridin-4-yl)-4-methyl-3-oxopyrazin-2-yl]amino]-2-[4-(4-methylpiperazin-1-yl)piperidin-1-yl]phenyl)prop-2-enamide] | 0.4 | 0.04 | Irreversible/covalent inhibition
C=CC(=O)Nc1cc(Nc2nc(-c3ccnc(N4CCn5c(cc6c5CC(C)(C)C6)C4=O)c3CO)cn(C)c2=O)ccc1N1CCN(C2CCOCC2)C[C@@H]1C [Example 22, N-(5-[[6-(2-[4,4-dimethyl-9-oxo-1,10-diazatricyclo[6.4.0.0^[2,6]]dodeca-2(6),7-dien-10-yl]-3-(hydroxymethyl)pyridin-4-yl)-4-methyl-3-oxopyrazin-2-yl]amino]-2-[(2S)-2-methyl-4-(oxan-4-yl)piperazin-1-yl]phenyl)prop-2-enamide] | 0.48 | 0.046 | Irreversible/covalent inhibition
C=CC(=O)Nc1cc(Nc2nc(-c3ccnc(N4CCn5c(cc6c5CC(C)(C)C6)C4=O)c3CO)cn(C)c2=O)ccc1N1CCN(C2CCC(F)(F)CC2)C[C@@H]1C [Example 23, N-[2-[(2S)-4-(4,4-difluorocyclohexyl)-2-methylpiperazin-1-yl]-5-[[6-(2-[4,4-dimethyl-9-oxo-1,10-diazatricyclo[6.4.0.0^[2,6]]dodeca-2(6),7-dien-10-yl]-3-(hydroxymethyl)pyridin-4-yl)-4-methyl-3-oxopyrazin-2-yl]amino]phenyl]prop-2-enamide] | 0.49 | 0.048 | Irreversible/covalent inhibition
C=CC(=O)Nc1cc(Nc2nc(-c3ccnc(N4CCCn5c(cc6c5CC(C)(C)C6)C4=O)c3CO)cn(C)c2=O)ccc1N1CCN(C2COC2)C[C@@H]1C [Example 29, N-(5-[[6-(2-[4,4-dimethyl-9-oxo-1,10-diazatricyclo[6.5.0.0^[2,6]]trideca-2(6),7-dien-10-yl]-3-(hydroxymethyl)pyridin-4-yl)-4-methyl-3-oxopyrazin-2-yl]amino]-2-[(2S)-2-methyl-4-(oxetan-3-yl)piperazin-1-yl]phenyl)prop-2-enamide] | 0.32 | 0.076 | Irreversible/covalent inhibition
C=CC(=O)Nc1cc(Nc2nc(-c3ccnc(N4CCn5c(cc6c5CC(C)(C)C6)C4=O)c3CO)cn(C)c2=O)cc(F)c1N1CCN(C2COC2)C[C@@H]1C [Example 30, N-(5-[[6-(2-[4,4-dimethyl-9-oxo-1,10-diazatricyclo[6.4.0.0^[2,6]]dodeca-2(6),7-dien-10-yl]-3-(hydroxymethyl)pyridin-4-yl)-4-methyl-3-oxopyrazin-2-yl]amino]-3-fluoro-2-[(2S)-2-methyl-4-(oxetan-3-yl)piperazin-1-yl]phenyl)prop-2-enamide] | 1.6 | 1.58 | 
C=CC(=O)Nc1cc(Nc2nc(-c3ccnc(N4CCc5c(sc6c5CCC6(C)C)C4=O)c3CO)cn(C)c2=O)ccc1N1CCN(C2COC2)C[C@@H]1C [Example 35, N-(5-[[6-(2-[5,5-dimethyl-9-oxo-7-thia-10-azatricyclo[6.4.0.0^[2,6]]dodeca-1(8),2(6)-dien-10-yl]-3-(hydroxymethyl)pyridin-4-yl)-4-methyl-3-oxopyrazin-2-yl]amino]-2-[(2S)-2-methyl-4-(oxetan-3-yl)piperazin-1-yl]phenyl)prop-2-enamide] | 17.9 | 0.13 | Irreversible/covalent inhibition
C=CC(=O)Nc1cc(Nc2nc(-c3ccnc(N4CCc5c(sc6c5CCCC6)C4=O)c3CO)cn(C)c2=O)ccc1N1CCN(C2COC2)C[C@@H]1C [Example 36, N-[5-([6-[3-(hydroxymethyl)-2-[6-oxo-8-thia-5-azatricyclo[7.4.0.0^[2,7]]trideca-1(9),2(7)-dien-5-yl]pyridin-4-yl]-4-methyl-3-oxopyrazin-2-yl]amino)-2-[(2S)-2-methyl-4-(oxetan-3-yl)piperazin-1-yl]phenyl]prop-2-enamide] | 1.1 | 0.1 | Irreversible/covalent inhibition
C=CC(=O)Nc1cc(Nc2nc(-c3ccnc(N4CCCn5c(cc6c5CC(C)(C)C6)C4=O)c3CO)cn(C)c2=O)ccc1N1CCN([C@H]2C[C@@H](C)O[C@@H](C)C2)C[C@@H]1C [Example 38, N-(5-[[6-(2-[4,4-dimethyl-9-oxo-1,10-diazatricyclo[6.5.0.0^[2,6]]trideca-2(6),7-dien-10-yl]-3-(hydroxymethyl)pyridin-4-yl)-4-methyl-3-oxopyrazin-2-yl]amino]-2-[(2S)-2-methyl-4-[(2R,4r,6S)-2,6-dimethyloxan-4-yl]piperazin-1-yl]phenyl)prop-2-enamide] | 0.26 | 0.073 | Irreversible/covalent inhibition
C=CC(=O)Nc1cc(Nc2nc(-c3ccnc(N4CCn5c(cc6c5CC(C)(C)C6)C4=O)c3CO)cn(C)c2=O)ccc1N1CCN(C2CCOC2)C[C@@H]1C (stereo partly drawn) [Example 39, N-(5-[[6-(2-[4,4-dimethyl-9-oxo-1,10-diazatricyclo[6.4.0.0^[2,6]]dodeca-2(6),7-dien-10-yl]-3-(hydroxymethyl)pyridin-4-yl)-4-methyl-3-oxopyrazin-2-yl]amino]-2-[(2S)-2-methyl-4-(oxolan-3-yl)piperazin-1-yl]phenyl)prop-2-enamide] | 0.34 | 0.06 | Irreversible/covalent inhibition
